{"source": "patent US11512290B2", "about": "“Compositions and methods for cellular reprogramming” (Duke University, priority 2018, dated 2022)", "type_in_all_cases": "cell-based, Mouse (C57BL/6)", "key": {"[1]": {"test_system": "neonatal cardiac fibroblasts", "test": "qPCR of cardiomyocyte sarcomere (maturation) genes in miR combo reprogrammed fibroblasts", "details": "for cardiomyocyte maturation (expression of Actn2, Myh6, Tnni3, Cacna1c): miR combo or negmiR transfected, various concentrations of ICR for 4 days, gene expression at day 14", "method": "(§1) Mouse (C57BL/6) neonatal cardiac fibroblasts were isolated from 2 day old mouse neonates according to the method outlined in Jayawardena et al. Following isolation fibroblasts were cultured in growth media containing DMEM (ATCC, Catalogue number 30-2002) supplemented with 15% v/v FBS (Thermo Scientific Hyclone Fetal bovine serum, Catalogue number SH30071.03, Lot number AXK49952) and 1% v/v penicillin/streptomycin (Gibco, Catalogue number 15140-122, 100 units Penicillin, 100 ug/ml Streptomycin). Fibroblasts were passaged once the cells had reached 70-80% confluence using 0.05% w/v trypsin (Gibco, Catalogue number 25300-054). Freshly isolated fibroblasts were labelled as Passage 0. Experiments were conducted with cells at passage 2. For all experiments, cells were seeded at 5000 cells/cm^2 in growth media. After 24 hours, the cells were transfected with transfection reagent alone (Dharmafect-I, ThermoScientific), with transfection reagent plus non-targeting microRNAs (negmiR), or with transfection reagent plus our previously reported combination of cardiac reprogramming microRNAs[9] (miR combo, miR-1, miR-133, miR-208, miR-499).\nqPCR: Total RNA was extracted using Quick-RNA MiniPrep Kit according to the manufacturer's instructions (Zymo Research). Total RNA (50 ng-100 ng) was converted to cDNA using a high capacity cDNA reverse transcription kit (Applied Biosystems). cDNA was used in a standard qPCR reaction involving FAM conjugated gene specific primers and TaqMan Gene Expression Master Mix (Applied Biosystems). The following primers were used for qPCR: Gapdh (Mm99999915_m1), Tnni3 (Mm00437164_m1), Actn2 (Mm00473657_m1), Myh6 (Mm00440359_m1), Cacna1c (Mm00437917_m1), Mef2C (Mm01340482_m1), Tbx5 (Mm00803518_m1), Gata4 (Mm00484689_m1) and Hand2 (Mm00439247 m1)."}, "[2]": {"test_system": "neonatal cardiac fibroblasts", "test": "Actn2 (α-sarcomeric actinin) immunofluorescence of reprogrammed fibroblasts", "method": "as §1\nCells were fixed with 2% v/v paraformaldehyde (EMS) as described previously. Fixed cells were blocked in antibody buffer (5% w/v BSA, 0.1% v/v Tween-20, in PBS) for 1 hr at room temperature. Following blocking, cells were incubated overnight at 4° C. with a-sarcomeric actinin antibody (Sigma, A7811, 1:100) in antibody buffer. After the overnight incubation, cells were washed three times in antibody buffer. Following washing, cells were incubated with Alexa-Fluor conjugated secondary antibodies (Invitrogen, Goat Anti-mouse 594 nm) at a 1:500 dilution in antibody buffer for 1 hr at room temperature. Nuclei were stained by DAPI at 1 μg/ml for 30 minutes at room temperature in antibody buffer. Following washing in PBS to remove unbound complexes, immunofluorescence was measured using a Zeiss Axiovert 200 inverted microscope."}, "TLR3": {"target": "T1, TLR3 (Mus musculus, UniProt Q99MB1)", "T1 construct": "neonatal cardiac fibroblasts were transfected with negmiR or miR combo; endogenous in cells; host or cells: mouse (C57BL/6) neonatal cardiac fibroblasts, passage 2", "T1 sequence (Q99MB1 26-905)": "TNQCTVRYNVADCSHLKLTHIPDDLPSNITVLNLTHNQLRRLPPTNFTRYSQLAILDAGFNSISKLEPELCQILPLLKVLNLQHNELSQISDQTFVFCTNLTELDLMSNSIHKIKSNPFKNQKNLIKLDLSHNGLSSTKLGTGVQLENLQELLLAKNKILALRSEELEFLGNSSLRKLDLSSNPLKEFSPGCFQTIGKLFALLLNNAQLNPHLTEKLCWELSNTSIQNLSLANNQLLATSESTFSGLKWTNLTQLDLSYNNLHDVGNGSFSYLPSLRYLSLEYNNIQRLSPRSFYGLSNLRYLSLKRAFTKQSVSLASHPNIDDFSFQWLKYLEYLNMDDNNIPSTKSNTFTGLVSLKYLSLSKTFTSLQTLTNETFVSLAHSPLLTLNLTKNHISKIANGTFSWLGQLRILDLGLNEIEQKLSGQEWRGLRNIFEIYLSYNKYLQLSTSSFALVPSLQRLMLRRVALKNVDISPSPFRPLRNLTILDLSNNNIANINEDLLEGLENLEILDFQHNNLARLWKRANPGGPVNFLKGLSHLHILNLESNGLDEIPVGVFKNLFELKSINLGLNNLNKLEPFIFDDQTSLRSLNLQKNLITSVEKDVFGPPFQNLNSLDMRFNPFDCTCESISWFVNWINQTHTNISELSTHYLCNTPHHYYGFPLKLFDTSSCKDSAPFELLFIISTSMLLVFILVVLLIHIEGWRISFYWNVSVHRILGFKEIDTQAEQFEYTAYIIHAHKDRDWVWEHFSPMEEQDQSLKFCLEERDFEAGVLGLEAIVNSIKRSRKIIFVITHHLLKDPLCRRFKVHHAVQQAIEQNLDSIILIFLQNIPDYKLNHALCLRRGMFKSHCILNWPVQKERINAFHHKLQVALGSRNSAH", "test": "IL6 ELISA: TLR3 activity measured as IL6 secretion into the media", "details": "CU-CPT-4a added one day post-transfection", "method": "IL6 ELISA kits were from R&D Systems. Fresh media (1 ml) was added to the cells one day prior to assaying for IL6. Per manufacturer's instructions 50 ul of media was assayed and the amount of IL6 in pg/ml in the culture media was determined via a standard curve. The IL6 pg/ml value was then adjusted for the total volume of the media (1 ml) and the total cellular protein in each well to correct for differences in cell number.\nTo test this further we transfected cells with microRNAs and assessed TLR3 activity by measuring IL6 secretion into the media. IL6 secretion is an accepted measurement of the activity of TLRs, including TLR3 [30-37]. […] Targeted knockdown of TLR3 or Ikbkb inhibited miR combo induced IL6 secretion; further validating that miR combo activated the TLR3-NFκB pathway (FIG. 6B)."}, "[3]": {"test_system": "neonatal cardiac fibroblasts", "test": "qPCR of cardiomyocyte-lineage commitment factors (initiation phase of cardiac reprogramming)", "details": "TLR3 agonist Poly(I:C) LMW for 3 days after transfection, FIGS. 2Bi-2Biv", "method": "as §1\nqPCR: Total RNA was extracted using Quick-RNA MiniPrep Kit according to the manufacturer's instructions (Zymo Research). […]"}, "[4]": {"test_system": "neonatal cardiac fibroblasts", "test": "Generating beating reprogrammed cardiomyocytes (count of beating colonies)", "method": "Isolated mouse (C57BL/6) neonatal cardiac fibroblasts (passage 2) were seeded into 12-well dishes at […] in growth media. Twenty-four hours later growth media was removed and the cells transfected with negmiR or miR combo as described above. One day later, the transfection complexes were removed and media was replaced with a chemically defined reprogramming media[12] that contained 1 ug/ml Poly(I:C) (LMW). For the next four days, cells received fresh chemically defined reprogramming media containing 1 ug/ml Poly(I:C) (LMW) daily. After this period, the cells received chemically defined reprogramming media without Poly(I:C) (LMW) for a further 10 days. Media was replaced every other day. Beating colonies were identified with a Zeiss Axiovert 200 inverted microscope."}}, "note": "“Also recorded” adds a separate entry of the source. {ppp} = triphosphate"}
{"compound": "ICR2: 2′F pyrimidine-incorporated 5′ppp RNA, blunt-ended hairpin, SEQ ID NO: 30: ggaug cggua ccuga cagca ucc (GGAUGCGGUACCUGACAGCAUCC; 2'-fluoro at CU, RNA at AG, 5' {ppp}, backbone not given here; blunt-ended hairpin)", "values": [{"measurement": "cardiomyocyte maturation (expression of Actn2, Myh6, Tnni3, Cacna1c)", "setting": "[1]", "result": "induced maturation; also recorded: activated cardiomyocyte maturation"}]}
{"compound": "ICR4: 5′ppp 2′F ssRNA comprising multiple stem-loops, SEQ ID NO: 37: ggaug cggua ccuga cagca uccua aacuc auggu ccaug uuugu ccaug gacca (GGAUGCGGUACCUGACAGCAUCCUAAACUCAUGGUCCAUGUUUGUCCAUGGACCA; 2'-fluoro at CU, RNA at AG, 5' {ppp}, backbone not given here; single strand with multiple stem-loops)", "values": [{"measurement": "cardiomyocyte maturation (expression of Actn2, Myh6, Tnni3, Cacna1c)", "setting": "[1]", "result": "activated cardiomyocyte maturation"}]}
{"compound": "O=C(N[C@H](Cc1ccccc1)C(=O)O)c1sc2cc(F)ccc2c1Cl", "note": "[CU-CPT-4a]", "values": [{"measurement": "effect of miR combo upon cardiomyocyte sarcomere gene expression", "setting": "[1]; CU-CPT-4a 10 μM for 4 days after miR combo transfection, then 6 days growth media", "result": "completely abolished"}, {"measurement": "miR combo reprogramming with respect to the expression of Myh6, Actn2, and Tnni3", "setting": "[1]; CU-CPT-4a 10 μM for 4 days after transfection, then 10 days growth media, FIGS. 1Bi-1Biii", "result": "completely inhibited"}, {"measurement": "ability of miR combo to generate mature cardiomyocytes with organized sarcomeres", "setting": "[2]; CU-CPT-4a 10 μM, anti-Actn2 staining, FIGS. 1Ci-1Ciii", "result": "completely inhibited"}, {"measurement": "effect of negmiR and miR combo upon IL6 secretion", "setting": "TLR3", "result": "completely ablated"}]}
{"compound": "Poly(I:C)", "values": [{"measurement": "effect of miR combo upon Myh6, Actn2 and Tnni3 expression", "setting": "[1]; Poly(I:C) LMW for 4 days after miR combo transfection, then 10 days growth media", "result": "significantly enhanced"}, {"measurement": "expression of Myh6, Actn2 and Tnni3 in the control negmiR samples", "setting": "[1]; Poly(I:C) LMW for 4 days after negmiR transfection, then 10 days growth media", "result": "induced expression"}, {"measurement": "number of Actn2(+) cells that formed in response to miR combo treatment", "setting": "[2]; Poly(I:C) LMW for 4 days, FIG. 7C", "result": "increased"}, {"measurement": "sarcomere maturation", "setting": "[2]; miR combo plus Poly(I:C), inserts of FIGS. 7Bi-7Bvi", "result": "enhanced"}, {"measurement": "expression of cardiomyocyte-commitment factors Gata4, Hand2, Tbx5 and Mef2C", "setting": "[3]", "result": "no effect"}, {"measurement": "increase of the ability of miR combo to form spontaneously beating colonies", "setting": "[4]; addition of Poly(I:C) (LMW) 1 ug/ml, colonies counted 14 days after transfection", "result": 3, "unit": "fold"}, {"measurement": "time at which mature beating colonies were observed", "setting": "[4]; miR combo plus Poly(I:C), time after transfection", "result": "within one week"}]}
